Source: US8669346B2, “Bone marrow targeting peptides” (Case Western Reserve University, priority 2010, dated 2014)
“Also recorded” adds a separate entry of the source. Where no end group is shown, it is not given here.

Legend:
bone marrow [1] = test: in vivo phage display screening; sequencing of phage plaques after the 5th round of injection; design: species or system C57BU6 mice; conditions: for L. Leg (Non-IRR) / Lung / R. Leg (IRR): number of sequenced plaques with this sequence; for L. Leg (Non-IRR): bone marrow of non-irradiated left leg; for L. Leg (Non-IRR) / R. Leg (IRR): after last injection; for Lung: after last injection (Table II); for Sequence copy number C BM: control bone marrow; for Sequence copy number C BM / Sequence copy number Irr BM: 20 plaques per organ isolate; for Sequence copy number Irr BM: irradiated bone marrow; for Sequence copy number Lung: 20 plaques per organ isolate (Table III); for R. Leg (IRR): bone marrow of irradiated right leg
Description: FIG. 2 illustrates schematic view of a phage screening strategy in accordance with an aspect of the application. The entire procedure was repeated 5 times to eliminate non-specific phage. On the fifth extraction, phage plaques were isolated from multiple organs and individually collected, expanded and sequenced.
(§1) C57BU6 mice had their right leg irradiated then, 24 h later, a phage library was injected and allowed to circulate, bone marrow was then harvested and the phage pool isolated. Phage were amplified and injected into the next mouse, and this process repeated a total of five times. The phage pool was then analysed from irradiated and non-irradiated legs and the sequences determined. Individual phage were then amplified, injected into irradiated mice and tissue distribution assessed. Table 1 lists the different peptides that came out of the sequencing from plaques plated after the last injection.
The screening methodology employed for isolating bone marrow-binding peptide sequences via phage display is illustrated in FIG. 2. Included in our screening strategy was the idea of obtaining some bone marrow-binding peptides that had high affinity for irradiated bone marrow, which, although not a required feature for targeting UCB cells to marrow, could be useful for engraftment into hosts where radiation treatment is part of the conditioning regimen. After the 5th round of phage injections, phage was isolated from lungs and from irradiated and non-irradiated bone marrow and sequenced (20 plaques per organ isolate).

bone marrow [2] = test: phage playoff screen, phage titer (PFU) per gram of tissue (FIG. 3); type: in vivo; conditions: equimolar phage injected, single mouse
Description: FIG. 3 illustrates a chart showing the results of a phage “playoff screen” where equimolar amounts of phage were injected into a mouse and plaque forming units (PFU) quantified.
We conducted a “playoff screen” to confirm bone marrow-targeting specificity. To perform a Playoff Screen, selected phage, along with a randomly selected phage from the pre-selected phage pool, were injected at equi-molar amounts into irradiated and non-irradiated mice, the bone marrows extracted, weighed and assayed for phage titer per gram of tissue; an example of the results of a Playoff Screen is shown in FIG. 3. While the data shown here are from only a single mouse, the results were important in several aspects.

UCB CD34+ cells [3] = test: MTT assay, toxicity on coated cells; type: cell-based, human; conditions: data not shown
Description: (§2) The CCP molecule has three primary components: One, the targeting peptide sequence; two, a linker sequence containing a biotinylated amino acid; and, three a lipid moiety for integration into the cell membrane (FIG. 4). Once synthesized, all CCP molecules are tested for purity and molecular weight using HPLC and mass spectroscopy (located in the Puget Sound Blood Center); for their ability to coat UCB CD34+ cells using flow cytometry, for any toxicity effects on progenitors using MTT and hematopoietic colony forming unit (CFU) assays.
(§3) Sequences from this initial round of selection (CALFFV (SEQ ID NO:1), RAPGGET (SEQ ID NO:41), RKVVVGS (SEQ ID NO: 4) and control RSR) were contracted out to commercial vendors for synthesis into CCPs. One single-hit sequence from bone marrow, RKVVVGS (SEQ ID NO:4), termed “RKV”, was successfully synthesized, purified, and its molecular weight validated by mass spectroscopy.

UCB CD34+ cells [4] = test: cell coating by CCP, flow cytometry using FITC-labeled Streptavidin; type: cell-based, human
Description: as §2, §3

bone marrow [5] = test: spleen and bone marrow-targeting of UCB cells coated with RKV-CCP, qRT-PCR of human ALU sequences (FIG. 5); type: in vivo, mice; conditions: 3 weeks post injection
Text: FIG. 5 illustrates a chart showing ALU qRT-PCR quantification of human UCB cell numbers. The y-axis indicates human cell numbers calculated from a human cell standard curve. RKV=RKV-coated human UCB cells; NC=Non-coated human UCB cells; P=Plasma-injected. ρ values are from Student's t test between RKV and NC samples. The squares indicate the individual values for the RKV samples.
Preliminary spleen and bone marrow-targeting of UCB cells has already been conducted with the RKV peptides as a CCP molecule (RKV-CCP). UCB cells were isolated using a discontinuous Percol gradient, red blood cells were lysed with ammonium chloride, and the cells were incubated at 37° C. for a total of 10 min with RKV-CCP molecule (30 μg/ml), centrifuged, washed and stored at 4° C. until injected. Progenitors from two separate UCB units were coated and tested. Mice were sub-lethally irradiated with 250 cGy and injected with 1.0×10^8 RKV-CCP coated or non-coated UCB cells, or plasma-only control; 2 mice per group per UCB sample for a total of 4 mice per injection group. Bone marrow, spleen and blood were collected 3 weeks post injection. qRT-PCR was then conducted to assess human ALU sequences. The number of human cells found in the marrow was derived from a qRT-PCR standard curve of known amounts of human cell mixed with murine […] cells. […] Plasma-injected mice had essentially no signal.

bone marrow [6] = test: distribution of individual phage injected into mice whose right leg was irradiated (FIG. 1); type: in vivo
Description: FIG. 1 illustrates the distribution of individual phage injected into mice whose right leg was irradiated. The amount of phage was normalized to tissue mass.
as §1

spleen = test: isolated phage injected into whole body irradiated mice; type: in vivo

## LDSSLFN (listed as Homo sapiens)
Bone marrow [1]
  L. Leg (Non-IRR): 1

## TSLKDDR (listed as Homo sapiens)
Bone marrow [1]
  Lung: 1

## KVSD-SL (KVSDSL; listed as Homo sapiens)
Bone marrow [1]
  Lung: 1

## SSYALI (listed as Homo sapiens) [SS-YALI]
Bone marrow [1]
  Sequence copy number C BM: 1
  Sequence copy number Irr BM: 5
  Sequence copy number Lung: 0
  R. Leg (IRR): 5

## RAPGGET (listed as Homo sapiens)
Bone marrow [1]
  Sequence copy number C BM: 0
  Sequence copy number Irr BM: 1
  Sequence copy number Lung: 0

## VGPSVGP (listed as Homo sapiens)
Bone marrow [1]
  L. Leg (Non-IRR): 1

## VVRAK (listed as Homo sapiens)
Bone marrow [1]
  Lung: 1

## QNDSASG (listed as Homo sapiens)
Bone marrow [1]
  Lung: 1

## LSTNRFV (listed as Homo sapiens)
Bone marrow [1]
  L. Leg (Non-IRR): 1

## RQDGRHG (listed as Homo sapiens)
Bone marrow [1]
  Sequence copy number C BM: 0
  Sequence copy number Irr BM: 1
  Sequence copy number Lung: 0
  R. Leg (IRR): 1

## CGYREVSSAALE (listed as Homo sapiens) [-CGYREVSSAALE]
Bone marrow [1]
  R. Leg (IRR): 1

## RGLQTGLEGSAWLLECGRA (listed as Homo sapiens)
Bone marrow [1]
  R. Leg (IRR): 1

## FSGRRLVSPRPHPSN (listed as Homo sapiens)
Bone marrow [1]
  Lung: 1

## VGVRIGGSLRPHSSN (listed as Homo sapiens)
Bone marrow [1]
  Lung: 1

## DLAHDALLAWGPPSINCLTLGAP (listed as Homo sapiens)
Bone marrow [1]
  R. Leg (IRR): 1

## VSKRDL (listed as Homo sapiens) [V-SKRDL]
Bone marrow [1]
  R. Leg (IRR): 1

## SVAPLRR (listed as Homo sapiens)
Bone marrow [1]
  Lung: 1

## GGL-RGGKLAAALE (GGLRGGKLAAALE; listed as Homo sapiens)
Bone marrow [1]
  Lung: 1

## RAANTAR (listed as Homo sapiens)
Bone marrow [1]
  Lung: 1

## GDRRDSR (listed as Homo sapiens)
Bone marrow [1]
  L. Leg (Non-IRR): 1

## VFSGVEVSSRPHSSN (listed as Homo sapiens)
Bone marrow [1]
  Lung: 1

## DGRSSRG (listed as Homo sapiens)
Bone marrow [1]
  Lung: 1

## TS-QLWC (TSQLWC; listed as Homo sapiens)
Bone marrow [1]
  L. Leg (Non-IRR): 4

## QARNGGR (listed as Homo sapiens)
Bone marrow [1]
  Sequence copy number C BM: 0
  Sequence copy number Irr BM: 0
  Sequence copy number Lung: 1
Bone marrow [1]; in words
  bone marrow specificity in the sequencing screen: no bone marrow specificity
Bone marrow [2]
  phage levels / binding in lung: high levels; also recorded: highest level
  phage levels / titers in bone marrow: low levels
  titers in the lung compared with bone marrow: greater

## SIGHRRE (listed as Homo sapiens)
Bone marrow [1]
  Sequence copy number C BM: 4
  Sequence copy number Irr BM: 0
  Sequence copy number Lung: 0
  L. Leg (Non-IRR): 1
Bone marrow [2]
  phage levels / titers in bone marrow: minimal

## EGGNEV (listed as Homo sapiens) [EGGN-EV]
Bone marrow [1]
  L. Leg (Non-IRR): 1
  Lung: 1

## CALFFV (listed as Homo sapiens)
Bone marrow [1]
  Sequence copy number C BM: 0
  Sequence copy number Irr BM: 4
  Sequence copy number Lung: 1
  R. Leg (IRR): 4
  Lung: 1

## GMKGVQL (listed as Homo sapiens)
Bone marrow [1]
  Lung: 1

## KSMARHR (listed as Homo sapiens)
Bone marrow [1]
  L. Leg (Non-IRR): 1
  Lung: 1

## GIRVMEK (listed as Homo sapiens)
Bone marrow [1]
  Sequence copy number C BM: 0
  Sequence copy number Irr BM: 2
  Sequence copy number Lung: 0
  R. Leg (IRR): 2

## RRSGKLL (listed as Homo sapiens)
Bone marrow [1]
  L. Leg (Non-IRR): 2

## LSTRVER (listed as Homo sapiens)
Bone marrow [1]
  Lung: 1

## GPGLKEM (listed as Homo sapiens)
Bone marrow [1]
  L. Leg (Non-IRR): 4

## GGNANRR (listed as Homo sapiens)
Bone marrow [1]
  Lung: 1

## DRN-RSA (DRNRSA; listed as Homo sapiens)
Bone marrow [1]
  Lung: 1

## VSGSVR (listed as Homo sapiens)
Bone marrow [1]
  Lung: 1

## RKV: cell coating peptide: RKVVVGS targeting sequence, spacer with biotin-labeled amino acid, lipid moiety for membrane insertion (also: spacer with biotin-labeled amino acid, end not given here, lipid moiety for membrane insertion, end not given here; listed as Homo sapiens)
UCB CD34+ cells [3]
  toxic effects on coated cells (MTT): no toxic effects
UCB CD34+ cells [4]
  ability to coat cells: able to coat cells efficiently
Bone marrow [5]; 1.0×10^8 UCB cells coated at 30 μg/ml, 250 cGy, ρ value 0.09
  human-derived cells in bone marrow compared to control non-coated cells: ~7 ×
Bone marrow [5]
  UCB cell numbers in bone marrow compared to spleen: approximately 6 times
Bone marrow [5]; statistically significant
  UCB cell numbers in the spleen compared to uncoated UCB cells: enhanced

## GRRGGAKPAVASRR (listed as Homo sapiens) [GRR-GGAKPAVASRR]
Bone marrow [1]
  L. Leg (Non-IRR): 1

## GRGDR-R (GRGDRR; listed as Homo sapiens)
Bone marrow [1]
  Lung: 1

## GRELRGQ (listed as Homo sapiens)
Bone marrow [1]
  L. Leg (Non-IRR): 1

## DDQSVSRKLAAALE (listed as Homo sapiens)
Bone marrow [6]; individual phage, irradiated versus non-irradiated leg, in words
  increased signal in irradiated leg: exception
Bone marrow [1]
  Sequence copy number C BM: 0
  Sequence copy number Irr BM: 3
  Sequence copy number Lung: 0
  R. Leg (IRR): 3

## RKVVVGS (listed as Homo sapiens)
Bone marrow [6]; in words
  binding in irradiated legs: marked increase in binding
  binding in non-irradiated legs: minimal binding
Bone marrow [6]; individual phage, right leg irradiated, phage normalized to tissue mass
  signal in the irradiated leg relative to non-irradiated leg: approximately 15 ×
Bone marrow [1]
  Sequence copy number C BM: 0
  Sequence copy number Irr BM: 1
  Sequence copy number Lung: 0
  R. Leg (IRR): 1
spleen
  binding to spleen: highly increased binding
